Test results published in patent US9113629B2, “4-amino-6-(4-substituted-phenyl)-picolinates and 6-amino-2-(4-substituted-phenyl)-pyrimidine-4-carboxylates and their use as herbicides” (DOW AGROSCIENCES LLC, priority 2013, dated 2015).

Test system: not given
Assay: not given
Settings: not given

Row | melting point | SMILES
1 | 159 °C (dec.) | Cc1ccc(-c2nc(C(=O)O)c(Cl)c(N)c2F)c(F)c1F [Compound 210]

Test system: Key Grass and Sedge Weeds as well as Grass Crops
Assay: Post-emergent Test II herbicidal activity (Table 6)
Type: in vivo
Settings: post-emergence, 336 h, CYPES: yellow nutsedge (Cyperus esculentus), 70 g ai/ha, read-out: Visual Growth Reduction (%) 14 Days After Application, CYPES
Method in brief: (§1)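 Plants grown in Metro-Mix 360 (pH 6.0–6.8) in a greenhouse (~15 h photoperiod, 23–29 °C day) to first or second true leaf stage, then sprayed with compound in acetone/DMSO/aqueous crop-oil-surfactant carrier at 187 L/ha by track sprayer. Injury visually scored 0–100% versus untreated plants after 14 d.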

Row | SMILES | pest or weed control at 70 g/ha [%]
2 | Cc1ccc(-c2nc(C(=O)O)c(Cl)c(N)c2F)c(F)c1F [Compound 210] | 0 to 29

Same assay, conditions: post-emergence, 336 h, CYPES: yellow nutsedge (Cyperus esculentus), 140 g ai/ha, read-out: Visual Growth Reduction (%) 14 Days After Application, CYPES

Row | SMILES | pest or weed control at 140 g/ha [%]
3 | Cc1ccc(-c2nc(C(=O)O)c(Cl)c(N)c2F)c(F)c1F [Compound 210] | 0 to 29

Same assay, conditions: post-emergence, 336 h, DIGSA: crabgrass (Digitaria sanguinalis), 70 g ai/ha, read-out: Visual Growth Reduction (%) 14 Days After Application, DIGSA

Row | SMILES | pest or weed control at 70 g/ha [%]
4 | Cc1ccc(-c2nc(C(=O)O)c(Cl)c(N)c2F)c(F)c1F [Compound 210] | 0 to 29

Same assay, conditions: post-emergence, 336 h, DIGSA: crabgrass (Digitaria sanguinalis), 140 g ai/ha, read-out: Visual Growth Reduction (%) 14 Days After Application, DIGSA

Row | SMILES | pest or weed control at 140 g/ha [%]
5 | Cc1ccc(-c2nc(C(=O)O)c(Cl)c(N)c2F)c(F)c1F [Compound 210] | 0 to 29

Same assay, conditions: post-emergence, 336 h, ECHCG: barnyardgrass (Echinochloa crus-galli), 70 g ai/ha, read-out: Visual Growth Reduction (%) 14 Days After Application, ECHCG

Row | SMILES | pest or weed control at 70 g/ha [%]
6 | Cc1ccc(-c2nc(C(=O)O)c(Cl)c(N)c2F)c(F)c1F [Compound 210] | 60 to 74

Same assay, conditions: post-emergence, 336 h, ECHCG: barnyardgrass (Echinochloa crus-galli), 140 g ai/ha, read-out: Visual Growth Reduction (%) 14 Days After Application, ECHCG

Row | SMILES | pest or weed control at 140 g/ha [%]
7 | Cc1ccc(-c2nc(C(=O)O)c(Cl)c(N)c2F)c(F)c1F [Compound 210] | 75 to 84

Same assay, conditions: post-emergence, 336 h, ORYSA: rice (Oryza sativa), crop, 70 g ai/ha, read-out: Visual Growth Reduction (%) 14 Days After Application, ORYSA

Row | SMILES | pest or weed control at 70 g/ha [%]
8 | Cc1ccc(-c2nc(C(=O)O)c(Cl)c(N)c2F)c(F)c1F [Compound 210] | 0 to 29

Same assay, conditions: post-emergence, 336 h, ORYSA: rice (Oryza sativa), crop, 140 g ai/ha, read-out: Visual Growth Reduction (%) 14 Days After Application, ORYSA

Row | SMILES | pest or weed control at 140 g/ha [%]
9 | Cc1ccc(-c2nc(C(=O)O)c(Cl)c(N)c2F)c(F)c1F [Compound 210] | 30 to 44

Same assay, conditions: post-emergence, 336 h, SETFA: giant foxtail (Setaria faberi), 70 g ai/ha, read-out: Visual Growth Reduction (%) 14 Days After Application, SETFA

Row | SMILES | pest or weed control at 70 g/ha [%]
10 | Cc1ccc(-c2nc(C(=O)O)c(Cl)c(N)c2F)c(F)c1F [Compound 210] | 75 to 84

Same assay, conditions: post-emergence, 336 h, SETFA: giant foxtail (Setaria faberi), 140 g ai/ha, read-out: Visual Growth Reduction (%) 14 Days After Application, SETFA

Row | SMILES | pest or weed control at 140 g/ha [%]
11 | Cc1ccc(-c2nc(C(=O)O)c(Cl)c(N)c2F)c(F)c1F [Compound 210] | 85 to 94

Same assay, conditions: post-emergence, 336 h, SORVU: grain sorghum (Sorghum vulgare), 70 g ai/ha, read-out: Visual Growth Reduction (%) 14 Days After Application, SORVU

Row | SMILES | pest or weed control at 70 g/ha [%]
12 | Cc1ccc(-c2nc(C(=O)O)c(Cl)c(N)c2F)c(F)c1F [Compound 210] | 0 to 29

Same assay, conditions: post-emergence, 336 h, SORVU: grain sorghum (Sorghum vulgare), 140 g ai/ha, read-out: Visual Growth Reduction (%) 14 Days After Application, SORVU

Row | SMILES | pest or weed control at 140 g/ha [%]
13 | Cc1ccc(-c2nc(C(=O)O)c(Cl)c(N)c2F)c(F)c1F [Compound 210] | 0 to 29

Same assay, conditions: post-emergence, 336 h, TRZSS (wheat, Triticum aestivum), crop, 70 g ai/ha, read-out: Visual Growth Reduction (%) 14 Days After Application, TRZSS

Row | SMILES | pest or weed control at 70 g/ha [%]
14 | Cc1ccc(-c2nc(C(=O)O)c(Cl)c(N)c2F)c(F)c1F [Compound 210] | 0 to 29

Same assay, conditions: post-emergence, 336 h, TRZSS (wheat, Triticum aestivum), crop, 140 g ai/ha, read-out: Visual Growth Reduction (%) 14 Days After Application, TRZSS

Row | SMILES | pest or weed control at 140 g/ha [%]
15 | Cc1ccc(-c2nc(C(=O)O)c(Cl)c(N)c2F)c(F)c1F [Compound 210] | 0 to 29

Same assay, conditions: post-emergence, 336 h, ZEAMX: maize, corn (Zea mays), crop, 70 g ai/ha, read-out: Visual Growth Reduction (%) 14 Days After Application, ZEAMX

Row | SMILES | pest or weed control at 70 g/ha [%]
16 | Cc1ccc(-c2nc(C(=O)O)c(Cl)c(N)c2F)c(F)c1F [Compound 210] | 0 to 29

Same assay, conditions: post-emergence, 336 h, ZEAMX: maize, corn (Zea mays), crop, 140 g ai/ha, read-out: Visual Growth Reduction (%) 14 Days After Application, ZEAMX

Row | SMILES | pest or weed control at 140 g/ha [%]
17 | Cc1ccc(-c2nc(C(=O)O)c(Cl)c(N)c2F)c(F)c1F [Compound 210] | 45 to 59

Test system: Key Broadleaf Weed and Crop Species
Assay: Post-emergent Test II herbicidal activity (Table 5)
Type: in vivo
Settings: post-emergence, 336 h; ABUTH: velvetleaf (Abutilon theophrasti); application rate 70 g ai/ha; 14 days after application; read-out: Visual Growth Reduction (%) 14 Days After Application, ABUTH
Method in brief: as §1

Row | SMILES | pest or weed control at 70 g/ha [%]
18 | Cc1ccc(-c2nc(C(=O)O)c(Cl)c(N)c2F)c(F)c1F [Compound 210] | 85 to 94

Same assay, conditions: post-emergence, 336 h; ABUTH: velvetleaf (Abutilon theophrasti); application rate 140 g ai/ha; 14 days after application; read-out: Visual Growth Reduction (%) 14 Days After Application, ABUTH

Row | SMILES | pest or weed control at 140 g/ha [%]
19 | Cc1ccc(-c2nc(C(=O)O)c(Cl)c(N)c2F)c(F)c1F [Compound 210] | 95 to 100

Same assay, conditions: post-emergence, 336 h; AMARE: redroot pigweed (Amaranthus retroflexus); application rate 70 g ai/ha; 14 days after application; read-out: Visual Growth Reduction (%) 14 Days After Application, AMARE

Row | SMILES | pest or weed control at 70 g/ha [%]
20 | Cc1ccc(-c2nc(C(=O)O)c(Cl)c(N)c2F)c(F)c1F [Compound 210] | 95 to 100

Same assay, conditions: post-emergence, 336 h; AMARE: redroot pigweed (Amaranthus retroflexus); application rate 140 g ai/ha; 14 days after application; read-out: Visual Growth Reduction (%) 14 Days After Application, AMARE

Row | SMILES | pest or weed control at 140 g/ha [%]
21 | Cc1ccc(-c2nc(C(=O)O)c(Cl)c(N)c2F)c(F)c1F [Compound 210] | 95 to 100

Same assay, conditions: post-emergence, 336 h; BRSNN: oilseed-rape, canola (Brassica napus); application rate 70 g ai/ha; 14 days after application; read-out: Visual Growth Reduction (%) 14 Days After Application, BRSNN

Row | SMILES | pest or weed control at 70 g/ha [%]
22 | Cc1ccc(-c2nc(C(=O)O)c(Cl)c(N)c2F)c(F)c1F [Compound 210] | 75 to 84

Same assay, conditions: post-emergence, 336 h; BRSNN: oilseed-rape, canola (Brassica napus); application rate 140 g ai/ha; 14 days after application; read-out: Visual Growth Reduction (%) 14 Days After Application, BRSNN

Row | SMILES | pest or weed control at 140 g/ha [%]
23 | Cc1ccc(-c2nc(C(=O)O)c(Cl)c(N)c2F)c(F)c1F [Compound 210] | 75 to 84

Same assay, conditions: post-emergence, 336 h; CHEAL: lambsquarters (Chenopodium album); application rate 70 g ai/ha; 14 days after application; read-out: Visual Growth Reduction (%) 14 Days After Application, CHEAL

Row | SMILES | pest or weed control at 70 g/ha [%]
24 | Cc1ccc(-c2nc(C(=O)O)c(Cl)c(N)c2F)c(F)c1F [Compound 210] | 95 to 100

Same assay, conditions: post-emergence, 336 h; CHEAL: lambsquarters (Chenopodium album); application rate 140 g ai/ha; 14 days after application; read-out: Visual Growth Reduction (%) 14 Days After Application, CHEAL

Row | SMILES | pest or weed control at 140 g/ha [%]
25 | Cc1ccc(-c2nc(C(=O)O)c(Cl)c(N)c2F)c(F)c1F [Compound 210] | 95 to 100

Same assay, conditions: post-emergence, 336 h; EPHHL: wild poinsettia (Euphorbia heterophylla); application rate 70 g ai/ha; 14 days after application; read-out: Visual Growth Reduction (%) 14 Days After Application, EPHHL

Row | SMILES | pest or weed control at 70 g/ha [%]
26 | Cc1ccc(-c2nc(C(=O)O)c(Cl)c(N)c2F)c(F)c1F [Compound 210] | 95 to 100

Same assay, conditions: post-emergence, 336 h; EPHHL: wild poinsettia (Euphorbia heterophylla); application rate 140 g ai/ha; 14 days after application; read-out: Visual Growth Reduction (%) 14 Days After Application, EPHHL

Row | SMILES | pest or weed control at 140 g/ha [%]
27 | Cc1ccc(-c2nc(C(=O)O)c(Cl)c(N)c2F)c(F)c1F [Compound 210] | 95 to 100

Same assay, conditions: post-emergence, 336 h; HELAN: sunflower (Helianthus annuus); application rate 70 g ai/ha; 14 days after application; read-out: Visual Growth Reduction (%) 14 Days After Application, HELAN

Row | SMILES | pest or weed control at 70 g/ha [%]
28 | Cc1ccc(-c2nc(C(=O)O)c(Cl)c(N)c2F)c(F)c1F [Compound 210] | 95 to 100

Same assay, conditions: post-emergence, 336 h; HELAN: sunflower (Helianthus annuus); application rate 140 g ai/ha; 14 days after application; read-out: Visual Growth Reduction (%) 14 Days After Application, HELAN

Row | SMILES | pest or weed control at 140 g/ha [%]
29 | Cc1ccc(-c2nc(C(=O)O)c(Cl)c(N)c2F)c(F)c1F [Compound 210] | 95 to 100

Same assay, conditions: post-emergence, 336 h; VIOTR: wild pansy (Viola tricolor); application rate 70 g ai/ha; 14 days after application; read-out: Visual Growth Reduction (%) 14 Days After Application, VIOTR

Row | SMILES | pest or weed control at 70 g/ha [%]
30 | Cc1ccc(-c2nc(C(=O)O)c(Cl)c(N)c2F)c(F)c1F [Compound 210] | 0 to 29

Same assay, conditions: post-emergence, 336 h; VIOTR: wild pansy (Viola tricolor); application rate 140 g ai/ha; 14 days after application; read-out: Visual Growth Reduction (%) 14 Days After Application, VIOTR

Row | SMILES | pest or weed control at 140 g/ha [%]
31 | Cc1ccc(-c2nc(C(=O)O)c(Cl)c(N)c2F)c(F)c1F [Compound 210] | 0 to 29
